Assay [1] deals with Protein kinase C eta type (Homo sapiens) (UniProt P24723). In words: Selectivity interaction (SelectScreen profiling (Invitrogen)) EUB0000607a PRKCH. To be noted: at 2 µM.
Assay [2] has as its system Tyrosine-protein kinase ABL1 (Homo sapiens), P00519 [Y253F]. To be noted: at 10 µM.
Assay [3] concerns the target Myosin light chain kinase, smooth muscle (Homo sapiens, UniProt Q15746). Kind of assay: Selectivity interaction (KinomeScan (DiscoverX)) EUB0000655a MYLK. To be noted: at 10 µM.
A further assay has as its target Ephrin type-A receptor 4 (Homo sapiens, UniProt P54764). Kind of assay: Selectivity interaction (KinomeScan (DiscoverX)) EUB0001619a EPHA4. To be noted: at 1 µM.
The target in the next assay is Focal adhesion kinase 1 (Homo sapiens, UniProt Q05397). Kind of assay: Selectivity interaction (Kinase panel (Invitrogen)) EUB0000639a PTK2. To be noted: at 200 nM.
Chain of Focal adhesion kinase 1 (Q05397 2-1052 limits assumed): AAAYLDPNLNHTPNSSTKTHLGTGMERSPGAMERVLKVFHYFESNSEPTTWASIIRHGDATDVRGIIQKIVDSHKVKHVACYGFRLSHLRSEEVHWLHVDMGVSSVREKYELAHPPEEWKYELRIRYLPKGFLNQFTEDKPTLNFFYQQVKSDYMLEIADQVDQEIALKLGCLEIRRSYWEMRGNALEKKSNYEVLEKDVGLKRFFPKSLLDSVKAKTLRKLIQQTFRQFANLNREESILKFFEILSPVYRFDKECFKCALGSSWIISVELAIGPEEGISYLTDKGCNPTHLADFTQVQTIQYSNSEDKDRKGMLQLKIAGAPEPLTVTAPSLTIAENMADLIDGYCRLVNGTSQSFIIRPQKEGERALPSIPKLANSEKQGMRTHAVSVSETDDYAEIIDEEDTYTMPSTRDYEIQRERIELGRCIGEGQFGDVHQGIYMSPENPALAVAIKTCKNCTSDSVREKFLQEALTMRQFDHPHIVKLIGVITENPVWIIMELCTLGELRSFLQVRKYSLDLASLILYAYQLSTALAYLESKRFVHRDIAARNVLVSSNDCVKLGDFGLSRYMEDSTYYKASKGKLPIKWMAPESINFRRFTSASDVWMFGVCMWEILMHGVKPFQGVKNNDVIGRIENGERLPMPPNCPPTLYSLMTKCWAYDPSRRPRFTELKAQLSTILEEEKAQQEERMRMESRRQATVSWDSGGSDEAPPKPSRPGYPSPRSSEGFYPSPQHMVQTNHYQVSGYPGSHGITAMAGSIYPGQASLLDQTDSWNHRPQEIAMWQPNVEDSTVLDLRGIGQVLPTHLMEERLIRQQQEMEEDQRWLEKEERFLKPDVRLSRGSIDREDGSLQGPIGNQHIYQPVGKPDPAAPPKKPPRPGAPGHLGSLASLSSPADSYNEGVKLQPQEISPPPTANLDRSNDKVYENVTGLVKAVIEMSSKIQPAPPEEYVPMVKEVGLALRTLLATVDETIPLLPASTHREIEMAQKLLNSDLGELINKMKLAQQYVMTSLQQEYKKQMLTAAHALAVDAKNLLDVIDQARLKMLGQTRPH
Assay [4] addresses Tyrosine-protein kinase Yes (Homo sapiens) (UniProt P07947). In words: Selectivity interaction (KinomeScan (DiscoverX)) EUB0001049a YES1. To be noted: at 1 µM.
The target of another assay is T1, Peregrin (Homo sapiens) (UniProt P55201).
T1 sequence (whole entry): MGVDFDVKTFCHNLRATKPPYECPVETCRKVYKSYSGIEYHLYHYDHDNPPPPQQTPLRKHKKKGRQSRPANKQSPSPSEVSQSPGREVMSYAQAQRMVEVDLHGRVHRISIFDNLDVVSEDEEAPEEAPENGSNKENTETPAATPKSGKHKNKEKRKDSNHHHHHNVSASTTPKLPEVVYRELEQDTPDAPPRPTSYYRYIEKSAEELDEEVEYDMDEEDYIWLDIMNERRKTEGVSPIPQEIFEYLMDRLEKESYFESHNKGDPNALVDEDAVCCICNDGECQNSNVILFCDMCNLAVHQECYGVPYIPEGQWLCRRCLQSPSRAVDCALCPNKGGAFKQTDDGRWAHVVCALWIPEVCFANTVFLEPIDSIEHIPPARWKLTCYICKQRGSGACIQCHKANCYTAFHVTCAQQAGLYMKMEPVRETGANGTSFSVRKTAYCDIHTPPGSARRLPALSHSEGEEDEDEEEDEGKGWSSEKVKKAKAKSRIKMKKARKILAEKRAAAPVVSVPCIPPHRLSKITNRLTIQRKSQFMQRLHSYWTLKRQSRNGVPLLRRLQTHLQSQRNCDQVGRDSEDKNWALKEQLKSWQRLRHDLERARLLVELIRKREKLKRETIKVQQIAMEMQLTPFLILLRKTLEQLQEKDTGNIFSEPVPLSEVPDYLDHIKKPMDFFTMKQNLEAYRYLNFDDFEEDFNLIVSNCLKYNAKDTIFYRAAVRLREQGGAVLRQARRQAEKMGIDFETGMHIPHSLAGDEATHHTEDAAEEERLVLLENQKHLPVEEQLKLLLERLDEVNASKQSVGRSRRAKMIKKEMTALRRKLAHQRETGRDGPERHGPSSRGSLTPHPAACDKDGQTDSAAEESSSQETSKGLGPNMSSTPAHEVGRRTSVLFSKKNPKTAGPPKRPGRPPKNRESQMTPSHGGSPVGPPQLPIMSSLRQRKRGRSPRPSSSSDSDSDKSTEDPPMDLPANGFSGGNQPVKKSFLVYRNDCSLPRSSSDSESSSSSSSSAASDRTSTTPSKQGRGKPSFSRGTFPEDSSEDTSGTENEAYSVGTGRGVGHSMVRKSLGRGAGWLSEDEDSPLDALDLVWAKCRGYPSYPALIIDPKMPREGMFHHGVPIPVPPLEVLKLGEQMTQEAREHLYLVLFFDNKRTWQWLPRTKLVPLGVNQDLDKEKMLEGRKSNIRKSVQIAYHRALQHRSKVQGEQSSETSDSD
In words: Selectivity interaction (Human bromodomain panel (DSF assay)) EUB0000233b BRPF1. Background: In DSF a fluorescence change marks the thermal transition of the protein.

In assay [5] the target is Serine/threonine-protein kinase RIO2 (Homo sapiens) (UniProt Q9BVS4). Kind of assay: Selectivity interaction (KinomeScan (DiscoverX)) EUB0000045b RIOK2.
Chain of Serine/threonine-protein kinase RIO2 (Homo sapiens) (Q9BVS4 whole entry, looked up): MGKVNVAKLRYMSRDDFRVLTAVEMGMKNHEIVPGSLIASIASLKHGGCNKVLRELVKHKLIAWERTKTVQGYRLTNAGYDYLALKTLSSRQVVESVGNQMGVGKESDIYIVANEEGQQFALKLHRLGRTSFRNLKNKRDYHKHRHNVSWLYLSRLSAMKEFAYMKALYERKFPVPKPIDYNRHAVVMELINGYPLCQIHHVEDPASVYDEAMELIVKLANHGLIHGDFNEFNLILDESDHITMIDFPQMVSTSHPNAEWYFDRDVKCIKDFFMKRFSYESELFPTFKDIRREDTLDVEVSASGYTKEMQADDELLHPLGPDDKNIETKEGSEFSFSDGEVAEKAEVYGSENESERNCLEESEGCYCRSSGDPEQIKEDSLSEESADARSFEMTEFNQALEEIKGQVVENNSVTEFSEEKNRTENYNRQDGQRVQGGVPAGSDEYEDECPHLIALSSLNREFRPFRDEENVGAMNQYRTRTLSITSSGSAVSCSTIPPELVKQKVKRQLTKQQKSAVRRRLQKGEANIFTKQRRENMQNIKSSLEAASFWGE
Assay [6] concerns the target T2, Dual serine/threonine and tyrosine protein kinase (Homo sapiens) (UniProt Q6XUX3).
T2 sequence (whole entry): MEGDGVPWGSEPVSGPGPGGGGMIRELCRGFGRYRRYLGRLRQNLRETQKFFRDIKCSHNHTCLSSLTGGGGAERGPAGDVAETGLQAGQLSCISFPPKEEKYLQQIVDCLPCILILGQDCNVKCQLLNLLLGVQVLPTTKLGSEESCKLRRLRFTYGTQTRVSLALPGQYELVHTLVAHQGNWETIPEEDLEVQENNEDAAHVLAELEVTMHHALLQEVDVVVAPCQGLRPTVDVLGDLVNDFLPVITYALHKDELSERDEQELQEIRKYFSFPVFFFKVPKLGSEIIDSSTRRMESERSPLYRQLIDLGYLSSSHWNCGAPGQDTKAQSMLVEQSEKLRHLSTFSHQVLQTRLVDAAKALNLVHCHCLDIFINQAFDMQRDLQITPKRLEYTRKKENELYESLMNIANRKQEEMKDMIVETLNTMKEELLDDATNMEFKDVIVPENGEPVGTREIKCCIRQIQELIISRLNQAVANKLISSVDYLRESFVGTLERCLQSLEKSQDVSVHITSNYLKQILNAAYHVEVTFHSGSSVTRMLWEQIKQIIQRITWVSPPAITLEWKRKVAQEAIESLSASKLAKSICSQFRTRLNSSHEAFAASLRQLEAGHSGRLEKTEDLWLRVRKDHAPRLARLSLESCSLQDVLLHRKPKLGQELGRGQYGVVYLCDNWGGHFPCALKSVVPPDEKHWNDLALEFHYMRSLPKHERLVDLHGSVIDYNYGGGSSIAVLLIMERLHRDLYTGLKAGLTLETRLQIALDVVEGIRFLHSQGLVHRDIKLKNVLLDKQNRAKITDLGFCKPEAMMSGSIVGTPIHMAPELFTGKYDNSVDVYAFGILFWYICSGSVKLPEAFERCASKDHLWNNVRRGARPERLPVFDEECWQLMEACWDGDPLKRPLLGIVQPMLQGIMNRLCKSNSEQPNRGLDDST
Kind of assay: Selectivity interaction (KinomeScan (DiscoverX)) EUB0000045b DSTYK.

Assay [7] concerns the target Platelet-derived growth factor receptor beta (Homo sapiens, UniProt P09619). Kind of assay: Selectivity interaction (KinomeScan (DiscoverX)) EUB0000618a PDGFRB. To be noted: at 10 µM.

Chain of Platelet-derived growth factor receptor beta (P09619 whole entry): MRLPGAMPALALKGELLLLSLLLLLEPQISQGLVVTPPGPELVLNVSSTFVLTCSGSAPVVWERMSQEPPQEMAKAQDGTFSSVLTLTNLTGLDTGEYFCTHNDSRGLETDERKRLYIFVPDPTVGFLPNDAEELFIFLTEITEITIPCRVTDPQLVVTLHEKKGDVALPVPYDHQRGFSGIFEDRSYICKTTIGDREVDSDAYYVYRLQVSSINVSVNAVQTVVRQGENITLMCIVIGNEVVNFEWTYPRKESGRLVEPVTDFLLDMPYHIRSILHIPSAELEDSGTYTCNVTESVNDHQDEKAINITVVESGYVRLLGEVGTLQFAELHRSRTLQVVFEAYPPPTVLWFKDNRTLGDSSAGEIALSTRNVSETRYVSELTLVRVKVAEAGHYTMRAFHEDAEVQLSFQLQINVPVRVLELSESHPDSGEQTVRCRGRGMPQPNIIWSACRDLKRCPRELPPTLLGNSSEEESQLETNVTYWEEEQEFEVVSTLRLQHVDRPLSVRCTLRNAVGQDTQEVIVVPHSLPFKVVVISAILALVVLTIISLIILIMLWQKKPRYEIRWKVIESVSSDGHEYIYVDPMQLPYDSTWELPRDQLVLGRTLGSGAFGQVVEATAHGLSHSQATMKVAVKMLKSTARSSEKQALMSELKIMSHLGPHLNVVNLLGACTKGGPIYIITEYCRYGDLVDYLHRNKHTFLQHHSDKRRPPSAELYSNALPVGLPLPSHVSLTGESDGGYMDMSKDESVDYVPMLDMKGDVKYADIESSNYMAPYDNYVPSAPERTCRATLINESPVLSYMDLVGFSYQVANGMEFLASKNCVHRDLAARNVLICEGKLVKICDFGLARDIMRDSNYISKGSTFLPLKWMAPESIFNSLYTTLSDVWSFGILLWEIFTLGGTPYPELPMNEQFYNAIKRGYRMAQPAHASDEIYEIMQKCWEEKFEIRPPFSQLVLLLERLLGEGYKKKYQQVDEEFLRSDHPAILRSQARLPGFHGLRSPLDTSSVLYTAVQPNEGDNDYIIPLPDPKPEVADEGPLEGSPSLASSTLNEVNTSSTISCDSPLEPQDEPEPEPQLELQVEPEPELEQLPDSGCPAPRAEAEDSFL
Chain of Protein kinase C eta type (Homo sapiens) (P24723 whole entry): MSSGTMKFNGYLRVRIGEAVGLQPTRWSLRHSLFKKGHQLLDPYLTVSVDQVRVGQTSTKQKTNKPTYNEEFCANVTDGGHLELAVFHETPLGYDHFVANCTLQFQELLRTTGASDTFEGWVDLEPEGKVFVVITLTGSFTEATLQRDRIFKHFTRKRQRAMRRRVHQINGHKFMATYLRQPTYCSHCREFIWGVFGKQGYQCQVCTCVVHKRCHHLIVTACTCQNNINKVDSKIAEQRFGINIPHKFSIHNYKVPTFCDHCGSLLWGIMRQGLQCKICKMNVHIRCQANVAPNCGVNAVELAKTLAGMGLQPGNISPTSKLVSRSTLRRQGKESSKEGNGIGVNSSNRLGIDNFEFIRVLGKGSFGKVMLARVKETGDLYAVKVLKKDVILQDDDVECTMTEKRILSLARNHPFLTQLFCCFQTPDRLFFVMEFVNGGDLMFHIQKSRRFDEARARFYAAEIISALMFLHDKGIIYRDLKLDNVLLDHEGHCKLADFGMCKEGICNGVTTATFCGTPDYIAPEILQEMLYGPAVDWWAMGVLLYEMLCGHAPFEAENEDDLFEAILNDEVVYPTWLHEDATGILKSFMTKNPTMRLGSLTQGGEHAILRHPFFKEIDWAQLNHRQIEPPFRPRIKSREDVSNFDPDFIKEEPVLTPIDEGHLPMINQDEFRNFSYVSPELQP
Chain of Tyrosine-protein kinase Yes (Homo sapiens) (P07947 2-543 limits assumed): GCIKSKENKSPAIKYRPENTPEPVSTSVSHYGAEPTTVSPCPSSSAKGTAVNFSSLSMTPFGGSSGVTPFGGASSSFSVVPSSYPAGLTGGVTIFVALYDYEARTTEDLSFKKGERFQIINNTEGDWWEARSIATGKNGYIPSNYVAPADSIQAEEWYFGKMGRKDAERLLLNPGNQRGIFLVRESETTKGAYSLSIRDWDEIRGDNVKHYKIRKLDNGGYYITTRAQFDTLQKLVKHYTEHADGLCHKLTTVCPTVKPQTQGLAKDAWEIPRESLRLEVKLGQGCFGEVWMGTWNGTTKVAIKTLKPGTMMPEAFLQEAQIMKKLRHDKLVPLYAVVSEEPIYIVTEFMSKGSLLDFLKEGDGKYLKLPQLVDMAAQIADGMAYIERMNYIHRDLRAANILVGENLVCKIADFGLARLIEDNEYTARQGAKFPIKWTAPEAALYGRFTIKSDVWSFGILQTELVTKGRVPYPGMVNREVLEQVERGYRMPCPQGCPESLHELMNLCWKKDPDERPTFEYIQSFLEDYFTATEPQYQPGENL
Chain of Ephrin type-A receptor 4 (P54764 whole entry): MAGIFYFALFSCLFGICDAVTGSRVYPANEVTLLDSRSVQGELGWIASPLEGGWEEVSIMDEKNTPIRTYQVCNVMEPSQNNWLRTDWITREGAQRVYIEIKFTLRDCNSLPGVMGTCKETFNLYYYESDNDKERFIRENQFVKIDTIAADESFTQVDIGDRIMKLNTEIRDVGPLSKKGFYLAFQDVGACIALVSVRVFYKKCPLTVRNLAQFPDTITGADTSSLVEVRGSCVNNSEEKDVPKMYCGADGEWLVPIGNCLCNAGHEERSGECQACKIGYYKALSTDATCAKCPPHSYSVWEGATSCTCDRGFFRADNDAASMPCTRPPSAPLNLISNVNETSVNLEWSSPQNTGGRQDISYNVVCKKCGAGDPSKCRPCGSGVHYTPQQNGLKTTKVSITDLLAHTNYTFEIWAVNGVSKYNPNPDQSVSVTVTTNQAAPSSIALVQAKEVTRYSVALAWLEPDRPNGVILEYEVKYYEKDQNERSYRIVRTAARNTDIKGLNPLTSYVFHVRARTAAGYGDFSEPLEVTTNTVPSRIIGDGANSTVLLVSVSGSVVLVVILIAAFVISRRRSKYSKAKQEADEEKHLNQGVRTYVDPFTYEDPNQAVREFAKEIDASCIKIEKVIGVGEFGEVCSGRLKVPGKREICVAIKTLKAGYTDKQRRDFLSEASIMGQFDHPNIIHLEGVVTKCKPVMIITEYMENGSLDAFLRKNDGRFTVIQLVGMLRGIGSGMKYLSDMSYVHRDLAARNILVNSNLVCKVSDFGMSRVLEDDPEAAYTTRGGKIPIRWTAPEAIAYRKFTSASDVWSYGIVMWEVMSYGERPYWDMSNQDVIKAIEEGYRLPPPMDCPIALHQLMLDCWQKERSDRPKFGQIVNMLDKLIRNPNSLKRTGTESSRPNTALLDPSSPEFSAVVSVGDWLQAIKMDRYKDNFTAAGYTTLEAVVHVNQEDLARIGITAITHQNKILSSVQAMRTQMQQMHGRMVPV

Take `CNC(=O)Nc1ccc(-c2nc(N3CC4CCC(C3)O4)c3cnn(C4CCC5(CC4)OCCO5)c3n2)cc1`: the % of inhibition in [1] was 14%.

For `Cc1cc([C@@H](C)Nc2ccccc2C(=O)O)c2nc(N3CCOCC3)cc(=O)n2c1` [AZD-6482], the % of control in assay [2] was found to be 100%.

In assay [3], `CN(C)CCOc1ccc(-c2nc(-c3ccncc3)c(-c3ccc4c(c3)CC/C4=N\O)[nH]2)cc1` registered a % of control of 98%.

`N#Cc1cccc(-c2c[nH]c3ncnc(N4CCOCC4)c23)c1` yielded a % of control at Ephrin type-A receptor 4 of 100%.

As for `CC[C@@H]1[C@H](F)C(=O)N[C@@H]1COc1nccc2cc(C(N)=O)c(OC)cc12` [ZIMLOVISERTIB], on Focal adhesion kinase 1, the % of inhibition stood at 3.3%.

Take `COc1cc(Nc2nc(C)cc(-c3cnn4nc(OC)ccc34)n2)cc(C(F)(F)F)c1`: in assay [4], the % of control is 80%.

For the compound `CN(C)CCCOc1ccc(-c2cc(NCCCn3cccn3)nc(S(C)(=O)=O)n2)cc1`, the dTM on Peregrin (Homo sapiens) is below 2 K.

Consider `C=CC(=O)Nc1cc(-n2c(=O)ccc3cnc4ccc(-c5ccc(NS(C)(=O)=O)cc5)cc4c32)ccc1C`, for which the % of control in assay [5] (at 1 µM) amounted to 66%; in assay [5] (at 10 µM) it was 43%; in assay [6] (at 1 µM) it was 100%; in assay [6] (at 10 µM), 100%.

Consider `O[C@H]1CC[C@H](Nc2ncc3nc(Nc4c(F)cc(F)cc4F)n([C@H]4CCOC4)c3n2)CC1`, for which the % of control in assay [7] was 64%.
